PMC4642847, “The PDB database is a rich source of alpha-helical anti-microbial peptides to combat disease causing pathogens” (F1000Research, 2015)
Where no end group is shown, it is not given here.

How the values were obtained:
[1] = test system: Xylella fastidiosa 3A2 (Xf)
[2] = test system: Liberibacter crescens BT-1 (Lc)
[3] = test system: Xanthomonas arboricola 417 (Xa)

Sequence: KWKVFKKIEKMGRNIRNGIVKAGPAIAVLGEAKAL [CECB, Cecropin B, reference compound]
- Minimum Inhibitory Concentration [1]: 100 25 µM
- Minimum Inhibitory Concentration [2]: 100 µM

Sequence: TAYGIMARQPNSRKSFIDSSIRLAR [CHITI25]
- Minimum Inhibitory Concentration [1]: 100 150 µM
- Minimum Inhibitory Concentration [2]: >300 µM
- Minimum Inhibitory Concentration [3]: 100 150 µM

Sequence: TIWKGVPKFLRRVDTALKNI [PPC20]
- Minimum Inhibitory Concentration [1]: 150 50 µM
- Minimum Inhibitory Concentration [2]: 200 µM

Sequence: TLDELELFTDAVERW [ISS15]
- Minimum Inhibitory Concentration [1]: >300 >300 µM
- Minimum Inhibitory Concentration [2]: >300 µM
- Minimum Inhibitory Concentration [3]: >300 >300 µM

Sequence: WKVFKKIEKMGRNIRNGIVKA [CBNT21, reference compound]
- Minimum Inhibitory Concentration [1]: 200 25 µM
- Minimum Inhibitory Concentration [2]: 200 µM
